The target of the assay is adenosine A2A receptor (Homo sapiens, UniProt P29274). As to the kind of experiment: adenosine A2A receptor agonist assay (method of Murphree et al, Molecular Pharmacology 61, 455-462 (2002)). Type of assay: binding. To be noted: method described by L. J. Murphree et al, Mol. Pharmacol. 61, 455-462 (2002). The text has this: Compounds of formulae (I) and (II) and their pharmaceutically acceptable salts are useful as pharmaceuticals. In particular, they activate the adenosine A2A receptor, i.e. they act as A2A receptor agonists.
Chain of adenosine A2A receptor (P29274 whole entry): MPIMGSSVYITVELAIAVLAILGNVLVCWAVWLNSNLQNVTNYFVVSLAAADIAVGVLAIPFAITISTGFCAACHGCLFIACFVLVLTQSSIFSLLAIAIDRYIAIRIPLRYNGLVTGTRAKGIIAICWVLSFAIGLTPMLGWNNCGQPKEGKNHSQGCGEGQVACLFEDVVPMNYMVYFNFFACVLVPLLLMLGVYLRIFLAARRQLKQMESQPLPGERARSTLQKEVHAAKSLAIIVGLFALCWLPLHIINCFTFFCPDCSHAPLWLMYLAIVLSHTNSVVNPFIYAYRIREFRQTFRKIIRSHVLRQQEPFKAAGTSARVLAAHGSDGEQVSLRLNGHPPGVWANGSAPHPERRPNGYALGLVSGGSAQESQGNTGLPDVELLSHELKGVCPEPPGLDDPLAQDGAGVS
Broadly, the Ki is a dissociation constant, usually derived from enzyme kinetics or from competition with a known ligand. Low readings indicate tighter binding, high ones weaker binding. Molecule `CCC(=O)N[C@H]1C[C@@H](n2cnc3c(NC(CO)Cc4ccccc4)nc(N4CC[C@@H](NC(=O)N[C@H]5CCN(c6nc(NC(CO)Cc7ccccc7)c7ncn([C@@H]8C[C@H](NC(=O)CC)[C@@H](O)[C@H]8O)c7n6)C5)C4)nc32)[C@H](O)[C@@H]1O` (stereo in doubt) [Example 7] displayed an inhibitory constant (Ki) of 10 nM.

`CCC(=O)N[C@H]1C[C@@H](n2cnc3c(NCC(c4ccccc4)c4ccccc4)nc(N4CC[C@@H](NC(=O)NC5CCC(NC(=O)N[C@H]6CCN(c7nc(NCC(c8ccccc8)c8ccccc8)c8ncn([C@@H]9C[C@H](NC(=O)CC)[C@@H](O)[C@H]9O)c8n7)C6)CC5)C4)nc32)[C@H](O)[C@@H]1O` (stereo in doubt) [Example 15]: the Ki came to 70 nM.

Turning to `CCC(=O)N[C@H]1C[C@@H](n2cnc3c(NCC(c4ccccc4)c4ccccc4)nc(N4CC[C@@H](NC(=O)N[C@@H]5CCN(c6nc(NCC(c7ccccc7)c7ccccc7)c7ncn([C@@H]8C[C@H](NC(=O)CC)[C@@H](O)[C@H]8O)c7n6)C5)C4)nc32)[C@H](O)[C@@H]1O` [Example 1], the Ki was determined as 10 nM.

Molecule `CCC(=O)N[C@H]1C[C@@H](n2cnc3c(NCC(c4ccccc4)c4ccccc4)nc(N4CC[C@@H](NC(=O)NS(=O)(=O)N[C@@H]5CCN(c6nc(NCC(c7ccccc7)c7ccccc7)c7ncn([C@@H]8C[C@H](NC(=O)CC)[C@@H](O)[C@H]8O)c7n6)C5)C4)nc32)[C@H](O)[C@@H]1O` [Example 19] returned an inhibition constant (Ki) of 60 nM. This Ki is about 6-fold higher than that of the molecule before.

For the origin of these results see patent US8193164B2, “Organic compounds” (Novartis AG, priority 2006, dated 2012).
